Measured values taken from paper PMC7822874, “Chemoprotective antimalarials identified through quantitative high-throughput screening of Plasmodium blood and liver stage parasites” (Scientific Reports, 2021).

How the values were obtained:
[1] = system: Plasmodium falciparum Dd2 asexual blood stage parasites; test: microbe, parasite or virus in culture; parameters: species or system Plasmodium falciparum Dd2 in human erythrocytes; single determination (one 11-point concentration-response curve); settings: Plasmodium falciparum, DD2, Erythrocyte, 72 h; read-out: AC50
[2] = in vitro; settings: human
[3] = HepG2-A16-CD81EGFP cells, uninfected

Row | Compound | AC50 [1] [nM] | viability at 66 h [2, 3] [%] | viability at 48 h [2, 3] [%] | viability at 48 h, 1 µM [2, 3] [%] | viability at 48 h, 3 µM [2, 3] [%] | viability at 48 h, 1 µM [2] [%] | viability at 48 h, 3 µM [2] [%]
1 | CCN(CC)CCC(c1ccc2c(c1)OCO2)c1c(O)cc(OC)cc1OC (centres unmarked) [MLS000879498-01] | 4220 | 103 |  |  |  |  | 
2 | COc1cc(O)c(C(CCN2CCCC(C)C2)c2ccc(N(C)C)cc2)c(OC)c1 (centres unmarked) [MLS000879516-01] | 1680 |  | 110 | 110 |  |  | 
3 | COc1cc(O)c(C(CCN2CCN(c3ccccc3)CC2)c2ccc(N(C)C)cc2)c(OC)c1 (centres unmarked) [MLS000879536-01] | 596 |  |  | 102 | 99 |  | 
4 | COc1ccc(C(CCN2CCN(c3ccccc3)CC2)c2c(O)cc(OC)cc2OC)cc1 (centres unmarked) [MLS000879538-01] | 944 |  |  | 95 | 95 |  | 
5 | CCN1CCN(Cc2ccc(NC(=O)c3cc(NC(=O)c4nccnc4N)cc(OC)c3)cc2C(F)(F)F)CC1 [MLS000911568-01] | 4730 |  |  | 89 | 87 |  | 
6 | O=S(=O)(c1ccccc1)c1nnn2c1nc(NC1CCN(Cc3ccccc3)CC1)c1cc(Cl)ccc12 [MLS000925207-01] | 2990 | 101 |  |  |  |  | 
7 | CCC(=O)N1CCc2cc(Br)cc(S(=O)(=O)N3CCCC(C(=O)NC(C)(C)C)C3)c21 (centres unmarked) [MLS000937025-01] | 3350 |  | 98.3 | 98.3 |  |  | 
8 | Oc1ccccc1CN1CCCC(N2CCN(c3cccc(C(F)(F)F)c3)CC2)C1 (centres unmarked) [MLS000998830-01] | 1330 |  |  | 103 | 105 |  | 
9 | COc1ccc(CN2CCCC(C(=O)c3ccc(Cl)cc3)C2)c(O)c1 (centres unmarked) [MLS000998855-01] | 531 |  |  |  |  | 101 | 103
10 | COc1ccc(CN2CCCC(N3CCc4ccccc4C3)C2)c(O)c1 (centres unmarked) [MLS001001490-01] | 2990 |  |  | 84 | 89 |  | 
11 | O=S(=O)(c1ccc(Cl)cc1)N1CCN(/C(S)=N/c2ccccc2F)CC1 [MLS001002653-01] | 2370 |  |  | 97 | 94 |  | 
12 | CCCn1c(SCC(=O)Nc2cc(Cl)ccc2Cl)n[nH]c1=O [MLS001002877-01] | 5310 |  |  | 97 | 94 |  | 
13 | Cc1ccccc1OCC(O)CN(Cc1ccccc1O)C1CCCCC1 (centres unmarked) [MLS001002964-01] | 119 |  |  | 85 | 90 |  | 
14 | COc1ccccc1N1CCN(C(=O)c2ccc3c(=O)n(Cc4ccc5c(c4)OCO5)c(=O)[nH]c3c2)CC1 [MLS001028591-01] | 2990 | 94 |  |  |  |  | 
15 | Cc1ccccc1C(=O)NC(CC(C)C)C(=O)OCC(=O)c1c(N)n(C)c(=O)n(C)c1=O (centres unmarked) [MLS001033160-01] | 2660 | 106 |  |  |  |  | 
16 | CCn1c2c(c(=N)c3ccccc31)CCC2 [MLS001047391-01] | 6680 | 97.3 |  |  |  |  | 
17 | CCn1c2c(c(=N)c3c1CCC3)CCCC2 [MLS001047512-01] | 13300 | 100 |  |  |  |  | 
18 | CCCc1nnc(NC(=O)c2cn(CC)c3cc(N4CCN(C)CC4)c(F)cc3c2=O)s1 [MLS001049245-01] | 8410 | 105 |  |  |  |  | 
19 | CCCNC(=O)c1ccc(N2CCC3(CC2)CC(c2cccc(Br)c2)=NO3)c(NC(=O)c2ccco2)c1 [MLS001074397-01] | 2990 |  |  | 118 | 104 |  | 

Row | Compound | AC50 [1] [nM] | viability at 66 h [2, 3] [%] | viability at 48 h [2, 3] [%] | viability at 48 h, 1 µM [2, 3] [%] | viability at 48 h, 3 µM [2, 3] [%] | viability at 48 h, 1 µM [2] [%] | viability at 48 h, 3 µM [2] [%]
20 | CCOc1cc(C(=O)N2CCC(CC3CC(c4cccc(Br)c4)=NO3)(C(=O)NCC3CCCCC3)CC2)cc(OCC)c1OCC (centres unmarked) [MLS001074456-01] | 1680 |  |  | 106 | 103 |  | 
21 | Cc1ccc(S(=O)(=O)NC(=O)Nc2ccc(N(C)C)cc2)cc1 [MLS001098045-01] | 1330 |  |  | 100 | 99 |  | 
22 | Cc1onc(-c2ccc(Cl)cc2)c1-c1ccnn1S(=O)(=O)c1ccc(Cl)cc1 [MLS001111121-01] | 1880 | 100 |  |  |  |  | 
23 | O=S(=O)(c1ccc(Cl)cc1)N1CCN(C(S)=NCC2CCCO2)CC1 (centres unmarked) [MLS001124005-01] | 1880 |  |  | 85 | 85 |  | 
24 | Cc1ccc(S(=O)(=O)c2nnn3c2nc(N2CCN(c4ccccn4)CC2)c2ccccc23)cc1 [MLS001124278-01] | 7500 |  | 98.6 | 98.6 |  |  | 
25 | Nc1nonc1-n1nnc(C(=O)N/N=C/c2cccs2)c1-c1ccc2c(c1)OCO2 [MLS001142649-01] | 1680 |  |  | 92 | 91 |  | 
26 | COc1ccc(CCn2c(=N)c(C(=O)NC3CCCC3)cc3c(=O)n4cccc(C)c4nc32)cc1 [MLS001147827-01] | 750 | 94.5 |  |  |  |  | 
27 | CCCc1cc(=O)oc2cc(C)cc(OC(C)C(=O)NCC(O)c3ccccc3)c12 (centres unmarked) [MLS001158075-01] | 841 |  |  | 84 | 88 |  | 
28 | CCCc1cc(=O)oc2cc(C)cc(OCC(=O)NC3CC3)c12 [MLS001159103-01] | 4730 |  |  | 121 | 104 |  | 
29 | CC(OC(=O)CCc1cc(C(C)(C)C)c(O)c(C(C)(C)C)c1)C(=O)NC1CC1 (centres unmarked) [MLS001159754-01] | 4730 |  |  | 104 | 101 |  | 
30 | CCCc1cc(=O)oc2cc(C)cc(OCC(=O)Nc3cccnc3)c12 [MLS001160340-01] | 531 |  |  | 106 | 99 |  | 
31 | CCOC(=O)c1cnc2ccc(OC)cc2c1Nc1ccc(N2CCN(C)CC2)cc1 [MLS001164177-01] | 1680 |  |  | 98 | 94 |  | 
32 | CC(C)Oc1ccc(C(CCNCc2ccc(O)cc2)c2ccccc2)cc1 (centres unmarked) [MLS001164341-01] | 668 | 102 |  |  |  |  | 
33 | Oc1ccccc1Nc1nc(-c2ccccc2O)nc2ccccc12 [MLS001164904-01] | 944 | 101 |  |  |  |  | 
34 | C#CCN1c2ccccc2Sc2cccnc21 [MLS001166384-01] | 6680 | 99.6 |  |  |  |  | 
35 | CCCN1CCc2c(sc3nc(SC)n(-c4ccccc4)c(=O)c23)C1 [MLS001173550-01] | 2660 |  |  | 112 | 101 |  | 
36 | OC(CNC1CCCCCC1)COc1cccc2ccccc12 (centres unmarked) [MLS001174634-01] | 1880 |  |  | 103 | 98 |  | 
37 | Cc1cc(O)c(CN2CC=C(c3ccccc3)CC2)cc1C(C)C [MLS001176749-01] | 335 |  |  |  |  | 106 | 105
38 | Clc1ccc2c(NCc3ccccn3)ccnc2c1 [MLS001178012-01] | 2110 | 107 |  |  |  |  | 

Row | Compound | AC50 [1] [nM] | viability at 66 h [2, 3] [%] | viability at 48 h [2, 3] [%] | viability at 48 h, 1 µM [2, 3] [%] | viability at 48 h, 3 µM [2, 3] [%] | viability at 48 h, 1 µM [2] [%] | viability at 48 h, 3 µM [2] [%]
39 | CCOC(=O)C1=C(C)N=c2sc(=Cc3ccc(OCC(=O)O)cc3)c(=O)n2C1c1cc(OC)c(OC)c(OC)c1 (centres unmarked) [MLS001178475-01] | 1880 |  | 98 | 98 |  |  | 
40 | c1ccc2c(NCCc3c[nH]c4ccccc34)c3ccccc3nc2c1 [MLS001195935-01] | 1880 |  |  | 92 | 83 |  | 
41 | CCOC(=O)c1c(C)n(-c2ccc(F)cc2)c2ccc(O)cc12 [MLS001195957-01] | 6680 |  |  | 109 | 93 |  | 
42 | O=c1c2ccccc2nc(/C=C/c2cc(Br)ccc2O)n1CCCO [MLS001197097-01] | 9440 | 103 |  |  |  |  | 
43 | COc1cc(C(=O)Nc2ccc3nc(N4CCN(C)CC4)cc(C)c3c2)cc(OC)c1OC [MLS001197839-01] | 3350 |  |  | 101 | 103 |  | 
44 | CCCCC(O)(c1ccc(CC)cc1)C(CN1CCOCC1)c1ccccc1 (centres unmarked) [MLS001198887-01] | 4730 |  |  | 88 | 85 |  | 
45 | CN(CCNC(=O)c1cc2c(-c3ccccc3F)nn(C)c2s1)C1CCCCC1 [MLS001199243-01] | 5960 |  |  | 84 | 84 |  | 
46 | CCCCN(C)CCNC(=O)c1cc2c(-c3cccc(OC)c3)nn(C)c2s1 [MLS001199565-01] | 6680 |  |  | 86 | 85 |  | 
47 | CN(C)c1cc[n+](CC(=O)c2cccs2)cc1 [MLS001207444-01] | 6680 | 101 |  |  |  |  | 
48 | C/C(Cl)=C/Cc1c(C)nc2c(ccc3ccccc32)c1O [MLS001211902-01] | 841 |  |  | 86 | 92 |  | 
49 | CCSc1nc2sc3c(c2c(=O)n1-c1ccccc1)CCN(C)C3 [MLS001212076-01] | 6680 |  |  | 104 | 103 |  | 
50 | COc1ccc(C2c3[nH]c4ccccc4c3C[C@H]3C(=O)N(C4CCN(Cc5ccccc5)CC4)CC(=O)N23)c(OC)c1 (some centres unmarked) [MLS001213218-01] | 2370 |  |  | 106 | 102 |  | 
51 | O=c1c(-c2ccc(Br)cc2)coc2c(CN3CCCCC3)c(O)ccc12 [MLS001214902-01] | 2110 | 98.2 |  |  |  |  | 
52 | COc1ccccc1C1c2[nH]c3ccccc3c2C[C@H]2C(=O)N(C3CCN(Cc4ccccc4)CC3)CC(=O)N12 (some centres unmarked) [MLS001215063-01] | 2110 |  |  | 87 | 85 |  | 
53 | CCOc1ccccc1C1c2[nH]c3ccccc3c2C[C@H]2C(=O)N(C3CCN(Cc4ccccc4)CC3)CC(=O)N12 (some centres unmarked) [MLS001215140-01] | 2370 |  |  | 106 | 101 |  | 
54 | O=C(NCCCNc1ccnc2cc(Cl)ccc12)c1ccccc1F [MLS001215856-01] | 841 |  |  | 85 | 88 |  | 
55 | C=C(C)COc1ccc(-c2ncnc(C(F)(F)F)c2-c2ccccc2)c(O)c1 [MLS001216193-01] | 2370 |  |  | 104 | 97 |  | 
56 | Cc1cccn2c(=O)c3cc(C(=O)NC4CCCC4)c(=N)n(CCc4ccccc4)c3nc12 [MLS001221260-01] | 1880 |  |  | 95 | 92 |  | 
